Laboratory results taken from patent publication US20260022142A1, “MACROCYCLIC IMMUNOMODULATORS” (Bristol-Myers Squibb Company, priority 2022, published 2026).
Numbered stars: 1 amine (or outer) side, 2 acyl side, 3 side chain; on linkers, the order of the positions; unused ones are H or OH. Bridge positions count the residues as written; N and C are the ends. Square brackets hold non-standard residues; d marks the D form. Peptide text beside a SMILES is read from it. * marks the point of attachment. ξ: configuration not given here. Phe(4-COOH) = N[C@@H](Cc1ccc(C(=O)O)cc1)C(=O)O; Bip = N[C@@H](Cc1ccc(-c2ccccc2)cc1)C(=O)O; X18 = O=C(C(CC1CCC(F)(F)CC1)N[*:1])[*:2]; Phe(3-Me) = Cc1cccc(C[C@H](N)C(=O)O)c1; NH(CH2)12COOH = O=C(O)CCCCCCCCCCCCN*; X4 = O=C([C@@H](N[*:1])C1CNC1)[*:2]; Val(3-OH) = CC(C)(O)[C@H](N)C(=O)O; X15 = C[C@H](N)C(N[*:1])C(=O)[*:2]; 4Pal = N[C@@H](Cc1ccncc1)C(=O)O; ξVal(3-OH) = CC(C)(O)C(N)C(=O)O; Aad = N[C@@H](CCCC(=O)O)C(=O)O; Cha = N[C@@H](CC1CCCCC1)C(=O)O; Carboxymethyl = O=C(O)C*; Orn = NCCC[C@H](N)C(=O)O; Aun = NCCCCCCCCCCC(=O)O; Dab = NCC[C@H](N)C(=O)O; Nva = CCC[C@H](N)C(=O)O; AEEA = NCCOCCOCC(=O)O

Biological target: T1, PD-1/PD-L1 interaction (PE-labeled human PD-L1-Ig binding to Jurkat cell line over-expressing human PD-1) (Homo sapiens, UniProt Q15116)
T1 construct: expressed in transfected cells; host or cells: Jurkat
T1 sequence (Q15116 25-288): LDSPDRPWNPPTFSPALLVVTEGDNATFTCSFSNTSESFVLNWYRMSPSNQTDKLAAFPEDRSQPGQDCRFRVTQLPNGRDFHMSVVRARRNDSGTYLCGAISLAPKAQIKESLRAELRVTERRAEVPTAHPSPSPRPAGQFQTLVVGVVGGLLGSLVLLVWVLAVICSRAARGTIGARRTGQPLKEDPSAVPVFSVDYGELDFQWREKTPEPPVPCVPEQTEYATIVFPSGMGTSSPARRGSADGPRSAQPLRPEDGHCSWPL
Test: Jurkat-PD-1 Cell Binding High-Content Screening Assay (CBA)
Format: cell-based
Details: Jurkat cell line over-expressing human PD-1; PE-labeled PD-L1-Ig 20 nM final; read-out: Jurkat hPD1-PDL1 IC50
In short: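 Read-out is high-content imaging of cell-bound phycoerythrin-tagged PD-L1-Ig on fixed, Hoechst-counterstained Jurkat cells that over-express human PD-1. Compound exposure lasts 2 h at 37° C before the labeled ligand (20 nM final) is added for a further hour.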

| IC50 | Compound |
| --- | --- |
| 1.3 nM | CCC[C@@H]1NC(=O)CSC[C@@H](C(=O)N[C@@H](CCN)C(=O)NCCOCCOCC(=O)NCCCCCCCCCCC(=O)O)NC(=O)[C@H](CO)NC(=O)[C@H](C(C)(C)O)NC(=O)[C@H](CC2CCCCC2)NC(=O)[C@H](CCN)NC(=O)[C@@H](CC(C)C)NC(=O)[C@H](CCCN)NC(=O)[C@H](Cc2ccc(OCC(=O)O)cc2)NC(=O)[C@H](Cc2ccc(-c3ccccc3)cc2)NC(=O)[C@H](Cc2ccc(OCC(=O)O)cc2)NC(=O)[C@H](Cc2cccc(C)c2)NC(=O)[C@H](CC(=O)O)NC(=O)[C@H](Cc2ccc(C(=O)O)cc2)NC1=O [Compound 2247] ({CH2CO}-[Nva][Phe(4-COOH)]D[Phe(3-Me)]Y(Carboxymethyl)[Bip]Y(Carboxymethyl)[Orn][dL][Dab][Cha][Val(3-OH)]SC[Dab][AEEA][Aun]-OH; thioether N-14) |
| 5.1 nM | Cc1cccc(C[C@@H]2NC(=O)[C@H](CC(=O)O)NC(=O)[C@H](Cc3ccc(O)cc3)NC(=O)[C@H](CCCNC(=N)N)NC(=O)CSC[C@@H](C(=O)N[C@@H](CCN)C(=O)NCCOCCOCC(=O)NCCCCCCCCCCC(=O)O)NC(=O)[C@H](CO)NC(=O)[C@H](C(C)(C)O)NC(=O)[C@H](CC3CCCCC3)NC(=O)[C@H](CCN)NC(=O)[C@@H](CC(C)C)NC(=O)[C@H](CCCN)NC(=O)[C@H](Cc3ccc(OCC(=O)O)cc3)NC(=O)[C@H](Cc3ccc(-c4ccccc4)cc3)NC(=O)[C@H](Cc3ccc(OCC(=O)O)cc3)NC2=O)c1 [Compound 2248] ({CH2CO}-RYD[Phe(3-Me)]Y(Carboxymethyl)[Bip]Y(Carboxymethyl)[Orn][dL][Dab][Cha][Val(3-OH)]SC[Dab][AEEA][Aun]-OH; thioether N-14) |
| 16 nM | Cc1cccc(C[C@@H]2NC(=O)[C@H](CC(=O)O)NC(=O)[C@H](Cc3ccc(OCC(=O)O)cc3)NC(=O)[C@H]([C@@H](C)O)NC(=O)CSC[C@@H](C(=O)N[C@@H](CCN)C(=O)NCCOCCOCC(=O)NCCCCCCCCCCCCC(=O)O)NC(=O)[C@H](CO)NC(=O)[C@H](C(C)(C)O)NC(=O)[C@H](CC3CCCCC3)NC(=O)[C@H](CCN)NC(=O)[C@@H](CC(C)C)NC(=O)[C@H](CCCN)NC(=O)[C@H](Cc3ccc(OCC(=O)O)cc3)NC(=O)[C@H](Cc3ccc(-c4ccccc4)cc3)NC(=O)[C@H](Cc3ccc(OCC(=O)O)cc3)NC2=O)c1 [Compound 2249] ({CH2CO}-TY(Carboxymethyl)D[Phe(3-Me)]Y(Carboxymethyl)[Bip]Y(Carboxymethyl)[Orn][dL][Dab][Cha][Val(3-OH)]SC[Dab][AEEA]-{NH(CH2)12COOH}; thioether N-14) |
| 18 nM | Cc1cccc(C[C@@H]2NC(=O)[C@H](CC(=O)O)NC(=O)[C@H](Cc3ccc(O)cc3)NC(=O)[C@H]([C@@H](C)O)NC(=O)CSC[C@@H](C(=O)N[C@@H](CCN)C(=O)NCCOCCOCC(=O)NCCCCCCCCCCCCC(=O)O)NC(=O)[C@H](CO)NC(=O)[C@H](C(C)(C)O)NC(=O)[C@H](CC3CCCCC3)NC(=O)[C@H](CCN)NC(=O)[C@@H](CC(C)C)NC(=O)[C@H](CCCN)NC(=O)[C@H](Cc3ccc(OCC(=O)O)cc3)NC(=O)[C@H](Cc3ccc(-c4ccccc4)cc3)NC(=O)[C@H](Cc3ccc(OCC(=O)O)cc3)NC2=O)c1 [Compound 2250] ({CH2CO}-TYD[Phe(3-Me)]Y(Carboxymethyl)[Bip]Y(Carboxymethyl)[Orn][dL][Dab][Cha][Val(3-OH)]SC[Dab][AEEA]-{NH(CH2)12COOH}; thioether N-14) |
| 10.5 nM | Cc1cccc(C[C@@H]2NC(=O)[C@H](CC(=O)O)NC(=O)[C@H](Cc3ccc(OCC(=O)O)cc3)NC(=O)[C@H](Cc3ccncc3)NC(=O)CSC[C@@H](C(=O)N[C@@H](CCN)C(=O)NCCOCCOCC(=O)NCCCCCCCCCCCCC(=O)O)NC(=O)[C@H](CO)NC(=O)[C@H](C(C)(C)O)NC(=O)[C@H](CC3CCCCC3)NC(=O)[C@H](CCN)NC(=O)[C@@H](CC(C)C)NC(=O)[C@H](CCCN)NC(=O)[C@H](Cc3ccc(OCC(=O)O)cc3)NC(=O)[C@H](Cc3ccc(-c4ccccc4)cc3)NC(=O)[C@H](Cc3ccc(OCC(=O)O)cc3)NC2=O)c1 [Compound 2251] ({CH2CO}-[4Pal]Y(Carboxymethyl)D[Phe(3-Me)]Y(Carboxymethyl)[Bip]Y(Carboxymethyl)[Orn][dL][Dab][Cha][Val(3-OH)]SC[Dab][AEEA]-{NH(CH2)12COOH}; thioether N-14) |
| 13.5 nM | CCC[C@@H]1NC(=O)CSC[C@@H](C(=O)N[C@@H](CCN)C(=O)NCCOCCOCC(=O)NCCCCCCCCCCCCC(=O)O)NC(=O)[C@H](CO)NC(=O)C(C(C)(C)O)NC(=O)[C@H](CC2CCCCC2)NC(=O)[C@H](CCN)NC(=O)[C@@H](CC(C)C)NC(=O)[C@H](CCCN)NC(=O)[C@H](Cc2ccc(OCC(=O)O)cc2)NC(=O)[C@H](Cc2ccc(-c3ccccc3)cc2)NC(=O)[C@H](Cc2ccc(OCC(=O)O)cc2)NC(=O)[C@H](Cc2cccc(C)c2)NC(=O)[C@H](CC(=O)O)NC(=O)[C@H](Cc2ccc(OCC(=O)O)cc2)NC1=O (stereo partly drawn) [Compound 2252] ({CH2CO}-[Nva]Y(Carboxymethyl)D[Phe(3-Me)]Y(Carboxymethyl)[Bip]Y(Carboxymethyl)[Orn][dL][Dab][Cha][ξVal(3-OH)]SC[Dab][AEEA]-{NH(CH2)12COOH}; thioether N-14) |
| 9.1 nM | Cc1cccc(C[C@@H]2NC(=O)[C@H](CC(=O)O)NC(=O)[C@H](Cc3ccc(OCC(=O)O)cc3)NC(=O)[C@H](CCCNC(=N)N)NC(=O)CSC[C@@H](C(=O)N[C@@H](CCN)C(=O)NCCOCCOCC(=O)NCCCCCCCCCCCCC(=O)O)NC(=O)[C@H](CO)NC(=O)[C@H](C(C)(C)O)NC(=O)[C@H](CC3CCCCC3)NC(=O)[C@H](CCN)NC(=O)[C@@H](CC(C)C)NC(=O)[C@H](CCCN)NC(=O)[C@H](Cc3ccc(OCC(=O)O)cc3)NC(=O)[C@H](Cc3ccc(-c4ccccc4)cc3)NC(=O)[C@H](Cc3ccc(OCC(=O)O)cc3)NC2=O)c1 [Compound 2253] ({CH2CO}-RY(Carboxymethyl)D[Phe(3-Me)]Y(Carboxymethyl)[Bip]Y(Carboxymethyl)[Orn][dL][Dab][Cha][Val(3-OH)]SC[Dab][AEEA]-{NH(CH2)12COOH}; thioether N-14) |
| 10.1 nM | CCC[C@@H]1NC(=O)CSC[C@@H](C(=O)N[C@@H](CCN)C(=O)NCCOCCOCC(=O)NCCCCCCCCCCCCC(=O)O)NC(=O)[C@H](CO)NC(=O)[C@H](C(C)(C)O)NC(=O)[C@H](CC2CCCCC2)NC(=O)[C@H](CCN)NC(=O)[C@@H](CC(C)C)NC(=O)[C@H](CCCN)NC(=O)[C@H](Cc2ccc(OCC(=O)O)cc2)NC(=O)[C@H](Cc2ccc(-c3ccccc3)cc2)NC(=O)[C@H](Cc2ccc(OCC(=O)O)cc2)NC(=O)[C@H](Cc2cccc(C)c2)NC(=O)[C@H](CC(=O)O)NC(=O)[C@H](Cc2ccc(C(=O)O)cc2)NC1=O [Compound 2254] ({CH2CO}-[Nva][Phe(4-COOH)]D[Phe(3-Me)]Y(Carboxymethyl)[Bip]Y(Carboxymethyl)[Orn][dL][Dab][Cha][Val(3-OH)]SC[Dab][AEEA]-{NH(CH2)12COOH}; thioether N-14) |
| 13.6 nM | Cc1cccc(C[C@@H]2NC(=O)[C@H](CC(=O)O)NC(=O)[C@H](Cc3ccc(OCC(=O)O)cc3)NC(=O)[C@H](C3CNC3)NC(=O)CSC[C@@H](C(=O)N[C@@H](CCN)C(=O)NCCCCCCCCCCCCC(=O)O)NC(=O)[C@H](CO)NC(=O)[C@H](C(C)(C)O)NC(=O)[C@H](CC3CCCCC3)NC(=O)[C@H](CCN)NC(=O)[C@@H](CC(C)C)NC(=O)[C@H](CCCN)NC(=O)[C@H](Cc3ccc(OCC(=O)O)cc3)NC(=O)[C@H](Cc3ccc(-c4ccccc4)cc3)NC(=O)[C@H](Cc3ccc(OCC(=O)O)cc3)NC2=O)c1 [Compound 2256] ({CH2CO}-[X4]Y(Carboxymethyl)D[Phe(3-Me)]Y(Carboxymethyl)[Bip]Y(Carboxymethyl)[Orn][dL][Dab][Cha][Val(3-OH)]SC[Dab]-{NH(CH2)12COOH}; thioether N-14) |
| 11.1 nM | Cc1cccc(C[C@@H]2NC(=O)[C@H](CC(=O)O)NC(=O)[C@H](Cc3ccc(OCC(=O)O)cc3)NC(=O)C([C@H](C)N)NC(=O)CSC[C@@H](C(=O)N[C@@H](CCN)C(=O)NCCCCCCCCCCCCC(=O)O)NC(=O)[C@H](CO)NC(=O)[C@H](C(C)(C)O)NC(=O)[C@H](CC3CCCCC3)NC(=O)[C@H](CCN)NC(=O)[C@@H](CC(C)C)NC(=O)[C@H](CCCN)NC(=O)[C@H](Cc3ccc(OCC(=O)O)cc3)NC(=O)[C@H](Cc3ccc(-c4ccccc4)cc3)NC(=O)[C@H](Cc3ccc(OCC(=O)O)cc3)NC2=O)c1 (stereo partly drawn) [Compound 2257] ({CH2CO}-[X15]Y(Carboxymethyl)D[Phe(3-Me)]Y(Carboxymethyl)[Bip]Y(Carboxymethyl)[Orn][dL][Dab][Cha][Val(3-OH)]SC[Dab]-{NH(CH2)12COOH}; thioether N-14) |
| 48.9 nM | Cc1cccc(C[C@@H]2NC(=O)[C@H](CC(=O)O)NC(=O)[C@H](Cc3ccc(OCC(=O)O)cc3)NC(=O)C(CC3CCC(F)(F)CC3)NC(=O)CSC[C@@H](C(=O)N[C@@H](CCN)C(=O)NCCCCCCCCCCCCC(=O)O)NC(=O)[C@H](CO)NC(=O)[C@H](C(C)(C)O)NC(=O)[C@H](CC3CCCCC3)NC(=O)[C@H](CCN)NC(=O)[C@@H](CC(C)C)NC(=O)[C@H](CCCN)NC(=O)[C@H](Cc3ccc(OCC(=O)O)cc3)NC(=O)[C@H](Cc3ccc(-c4ccccc4)cc3)NC(=O)[C@H](Cc3ccc(OCC(=O)O)cc3)NC2=O)c1 (stereo partly drawn) [Compound 2258] ({CH2CO}-[X18]Y(Carboxymethyl)D[Phe(3-Me)]Y(Carboxymethyl)[Bip]Y(Carboxymethyl)[Orn][dL][Dab][Cha][Val(3-OH)]SC[Dab]-{NH(CH2)12COOH}; thioether N-14) |
| 17.9 nM | Cc1cccc(C[C@@H]2NC(=O)[C@H](CC(=O)O)NC(=O)[C@H](Cc3ccc(OCC(=O)O)cc3)NC(=O)[C@H](CCCC(=O)O)NC(=O)CSC[C@@H](C(=O)N[C@@H](CCN)C(=O)NCCCCCCCCCCCCC(=O)O)NC(=O)[C@H](CO)NC(=O)[C@H](C(C)(C)O)NC(=O)[C@H](CC3CCCCC3)NC(=O)[C@H](CCN)NC(=O)[C@@H](CC(C)C)NC(=O)[C@H](CCCN)NC(=O)[C@H](Cc3ccc(OCC(=O)O)cc3)NC(=O)[C@H](Cc3ccc(-c4ccccc4)cc3)NC(=O)[C@H](Cc3ccc(OCC(=O)O)cc3)NC2=O)c1 [Compound 2259] ({CH2CO}-[Aad]Y(Carboxymethyl)D[Phe(3-Me)]Y(Carboxymethyl)[Bip]Y(Carboxymethyl)[Orn][dL][Dab][Cha][Val(3-OH)]SC[Dab]-{NH(CH2)12COOH}; thioether N-14) |
